Experimental data taken from PubChem BioAssay (NCI).
“And” between values parts separate entries of the source, which are not always exact repeats. Equal values may be shown once.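 Step 1: Grow cells in 96-well plates. Step 2: Expose to compound for 48 hours at 5 concentrations. Step 3: Interpolate endpoints linearly; if unreached, use highest concentration. Abbreviation: GI50, concentration required for 50% inhibition of growth. Definition used: TGI = concentration required for complete inhibition of growth.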

Key:
Assay in all cases: NCI anticancer screen, dose series, 48 h
LOX IMVI melanoma = tested on: LOX IMVI melanoma
NCI/ADR-RES ovarian = tested on: NCI/ADR-RES ovarian
SF-268 CNS = tested on: SF-268 CNS
SF-539 CNS = tested on: SF-539 CNS
T-47D breast = tested on: T-47D breast
A549 NSCLC = tested on: A549 NSCLC
SNB-75 CNS = tested on: SNB-75 CNS
UO-31 renal = tested on: UO-31 renal
DU-145 prostate = tested on: DU-145 prostate
OVCAR-4 ovarian = tested on: OVCAR-4 ovarian

For `CC1=C(O)C(=O)C=C2C1=CC=C1[C@@]2(C)CC[C@@]2(C)[C@@H]3C[C@](C)(C(=O)O)CC[C@]3(C)CC[C@]12C`, the TGI (LOX IMVI melanoma) was 0.0414 µM, the TGI (NCI/ADR-RES ovarian) was 0.107 µM and the TGI (SF-268 CNS) was 0.106 µM. It also gave a TGI (SF-539 CNS) of 0.331 µM, a TGI (T-47D breast) of 0.0807 µM and a TGI (A549 NSCLC) of 2.03 µM. For the same compound, the TGI (SNB-75 CNS) was 0.327 µM, the TGI (UO-31 renal) was 0.151 µM and the TGI (DU-145 prostate) was 0.202 µM. For the same compound, the TGI (OVCAR-4 ovarian) was 0.174 µM.

In the case of `Clc1ccc(C=Nc2ccc3c(c2)Cc2ccccc2-3)c(Cl)c1`, the TGI (LOX IMVI melanoma) is reported as over 100 µM, the TGI (NCI/ADR-RES ovarian) is reported as over 100 µM and the TGI (SF-268 CNS) is reported as over 100 µM. It also gave a TGI (SF-539 CNS) of over 100 µM, a TGI (T-47D breast) of over 100 µM and a TGI (A549 NSCLC) of over 100 µM. For the same compound, the TGI (SNB-75 CNS) was over 100 µM, the TGI (UO-31 renal) was over 100 µM and the TGI (DU-145 prostate) was over 100 µM. It also gave a TGI (OVCAR-4 ovarian) of over 100 µM.

`O=C1Nc2ccc(F)cc2/C1=C/c1ccc[nH]1` gave a GI50 (LOX IMVI melanoma) of 24.2 µM, a TGI (LOX IMVI melanoma) of over 25 µM and a GI50 (NCI/ADR-RES ovarian) of over 25 µM. For the same compound, the TGI (NCI/ADR-RES ovarian) was over 25 µM, the GI50 (SF-268 CNS) was over 25 µM and the TGI (SF-268 CNS) was over 25 µM. It also gave a GI50 (SF-539 CNS) of over 25 µM, a TGI (SF-539 CNS) of over 25 µM and a GI50 (T-47D breast) of 1.03 µM. For the same compound, the TGI (T-47D breast) was over 14.2 µM, the GI50 (A549 NSCLC) was over 25 µM and the TGI (A549 NSCLC) was over 25 µM. For the same compound, the GI50 (SNB-75 CNS) was over 25 µM, the TGI (SNB-75 CNS) was over 25 µM and the GI50 (UO-31 renal) was over 16.8 µM. The TGI (UO-31 renal) was over 25 µM, the GI50 (DU-145 prostate) was over 25 µM and the TGI (DU-145 prostate) was over 25 µM. It also gave a GI50 (OVCAR-4 ovarian) of 4.06 µM and a TGI (OVCAR-4 ovarian) of over 25 µM.

`Nc1nc(F)nc2c1ncn2C1OC(CO)C(O)C1O` (stereo unspecified) was tested, and the GI50 (LOX IMVI melanoma) was 19.9 µM, the TGI (LOX IMVI melanoma) was over 100 µM and the TGI (NCI/ADR-RES ovarian) was > 55.5 µM and 46.6 µM. It also gave a GI50 (SF-268 CNS) of 55.4 µM, a TGI (SF-268 CNS) of over 100 µM and a TGI (SF-539 CNS) of over 100 µM. For the same compound, the GI50 (T-47D breast) was over 56 µM, the TGI (T-47D breast) was over 100 µM and the GI50 (A549 NSCLC) was 35.6 µM. It also gave a TGI (A549 NSCLC) of over 100 µM, a TGI (SNB-75 CNS) of over 100 µM and a GI50 (UO-31 renal) of 5.1 µM. The TGI (UO-31 renal) was over 100 µM, the GI50 (DU-145 prostate) was 19.7 µM and the TGI (DU-145 prostate) was over 100 µM. It also gave a TGI (OVCAR-4 ovarian) of over 100 µM.

`CCOc1cc(C(C)(C)C)ccc1C1=N[C@@](C)(c2ccc(Cl)cc2)[C@@](C)(c2ccc(Cl)cc2)N1C(=O)N1CCN(CCCS(C)(=O)=O)CC1` showed a GI50 (LOX IMVI melanoma) of 0.438 µM, a TGI (LOX IMVI melanoma) of 11 µM and a GI50 (NCI/ADR-RES ovarian) of 4.97 µM. For the same compound, the TGI (NCI/ADR-RES ovarian) was 18.9 µM, the GI50 (SF-268 CNS) was 9.42 µM and the TGI (SF-268 CNS) was 37.6 µM. For the same compound, the GI50 (SF-539 CNS) was 5.12 µM, the TGI (SF-539 CNS) was 16.9 µM and the GI50 (T-47D breast) was 9.21 µM. For the same compound, the TGI (T-47D breast) was 61.4 µM, the GI50 (A549 NSCLC) was 1.01 µM and the TGI (A549 NSCLC) was 19.4 µM. It also gave a GI50 (SNB-75 CNS) of 3.64 µM, a TGI (SNB-75 CNS) of 17.3 µM and a GI50 (UO-31 renal) of 0.401 µM. The TGI (UO-31 renal) was 8.59 µM, the GI50 (DU-145 prostate) was 11 µM and the TGI (DU-145 prostate) was 25.6 µM. For the same compound, the GI50 (OVCAR-4 ovarian) was 7.33 µM and the TGI (OVCAR-4 ovarian) was 22.5 µM.
